Measured values as given in US20230365571A1, “COMPOUNDS AND COMPOSITIONS AS Sppl2a INHIBITORS” (Novartis AG, priority 2020, published 2023).

Experiments:
[1] = molecular target: T1, human SPPL2a (Homo sapiens, UniProt Q8TCT8); assay: Sppl2a TL (translocation) imaging assay in U-2 OS cells; type: cell-based; design: expressed in transfected cells; details: U-2 OS cells expressing human SPPL2a and EGFP-TNFα(aa1-76) NTF substrate; 24 h
T1 sequence (Q8TCT8 26-520): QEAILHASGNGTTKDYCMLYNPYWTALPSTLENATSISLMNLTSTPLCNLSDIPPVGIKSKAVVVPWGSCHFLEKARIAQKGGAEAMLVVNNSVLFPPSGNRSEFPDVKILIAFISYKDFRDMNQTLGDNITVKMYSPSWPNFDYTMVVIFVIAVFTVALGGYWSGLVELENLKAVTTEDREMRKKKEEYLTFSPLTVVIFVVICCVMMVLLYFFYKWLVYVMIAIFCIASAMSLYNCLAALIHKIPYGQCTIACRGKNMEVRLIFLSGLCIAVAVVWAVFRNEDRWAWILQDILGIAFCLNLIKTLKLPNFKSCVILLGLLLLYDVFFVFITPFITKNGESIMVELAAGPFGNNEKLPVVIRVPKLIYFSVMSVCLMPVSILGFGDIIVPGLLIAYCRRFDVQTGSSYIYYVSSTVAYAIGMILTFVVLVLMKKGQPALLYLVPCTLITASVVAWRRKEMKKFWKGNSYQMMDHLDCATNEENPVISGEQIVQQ
Procedure: SPPL2a, TL in U-2 OS Cells. Stable U-2 OS cell lines expressing human SPPL2a constitutively and a EGFP-labeled TNFα(aa1-76) NTF substrate under a doxycycline-regulated promoter were used for the imaging assays. Cells were seeded at 3000 cells/30 μL/384-well in DMEM/GlutaMax™-I (Invitrogen) supplemented with tetracycline-free 10% FBS (Amimed) and incubated at 37° C., 5% CO2 for 3-4 h. Subsequently, 3.3 μL of inhibitors, prediluted in doxycycline-containing medium for 11-point concentration-response curves, were added to each well using a CyBi well liquid handling device (Cybio AG, Jena, Germany) to result in final inhibitor concentrations ranging from 100 μM to 1 nM (final DMSO concentration 0.9% (v/v)) and 5 μg/mL doxycycline). The cells were incubated with inhibitor at 37° C., 5% CO2 for 24 h. Thereafter cell were fixed in 4% PFA/PBS and in parallel, nuclei were stained with Hoechst (Invitrogen) 1:5000 in PBS for 30 min. The plates were imaged using a Cellomics ArrayScan VTI HCS reader with 10×/0.3NA objective (Thermo Fisher Scientific, USA). Six images per well were acquired. Images for the EGFP signal (Ex395, Em509) and the Hoechst nuclear dye (Ex350, Em425) were acquired simultaneously with image analysis using the “Nuclear Translocation” assay algorithm of the Cellomics ArrayScan software. Nuclei were detected based on the Hoechst staining, the nuclear mask was transferred to the EGFP channel, and a 4 pixel wide cytoplasm ring region was defined around the nucleus. The intensity of the EGFP signal was measured both in the nuclear and in the cytoplasm ring region of each individual cell (in general 800-1000 individual cells were analyzed per well), and the difference of the average nuclear versus average cytoplasmic intensity of the EGFP signal was calculated (“CircRingAvgIntenDiffCh2”=“CircAvgIntenCh2”−“RingAvgIntenCh2”). Additionally the number of cells were acquired (feature termed “ValidCellCount”) and used to calculate cell toxicity (CC50). Percent inhibition was calculated relative to the positive (0.5 μM LY-411,575=100% inhibition) and negative (DMSO=0% inhibition) controls. The IC50 value was calculated from the plot of percentage of inhibition vs inhibitor concentration using nonlinear regression analysis software, e.g., Origin (OriginLab Corp.).

[2] = molecular target: T1, human SPPL2a; assay: Sppl2a RGA (reporter gene assay) in HEK293 cells; type: cell-based; design: expressed in transfected cells; host or cells: HEK293 (transient); details: NT-TNF-VP16-Gal4 substrate, Gal4-luciferase reporter, 24 h
Excerpt: Sppl2a RGA (Reporter Gene Assay):
Sppl2a is an intramembrane aspartyl protease with similarities to presenilin, the active subunit of the γ-secretase complex. The assay is based on the coupling of the proteolytic degradation of a membrane bound synthetic substrate (VP16-Gal4 fusion protein with the N-terminal domain of TNF alpha), which migrates to the nucleus upon cleavage, with the Gal4 driven expression of luciferase. Inhibition of Sppl2a results in a reduction of nuclear VP16-Gal4 activator and therefore in a reduction of the production of luciferase. The luciferase dependent-luminescence is plotted against the concentrations of compound to generate a dose response curve, which allows the calculation of the IC50 value.
DNA vectors encoding human Sppl2a, NT-TNF-VP16-Gal4 and a Gal4-luciferase reporter were transiently transfected in HEK293 cells. In a typical experiment 5 μg plasmid for SPPL2a, 10 μg plasmid encoding the reporter Gal4-luciferase and 20 μg plasmid encoding the substrate NT-TF-VP16-Gal4 were mixed together. The DNA mixture was combined with 107 μl FuGENE® (Promega), 735 μl Opti-MEM® (Life Technologies) and incubated for 5 minutes at RT. To this mixture 20 mL of concentrated HEK293 cells were added and thoroughly mixed. The cell suspension was distributed to a white solid 384 well plate. Within 5 hours, 50 nl of compound in DMSO was stamped into the wells via pintool. The plate was incubated for 24 h at 37° C., 5% CO2 in a humidified incubator, before the addition of 25 μl Bright Glo. After incubation at RT for 5 min, the plate was transferred to a luminometer and the luminescence was measured. The IC50 was determined by plotting compound concentration vs. normalized luminescence values.

Q: How did the IC50 [1] turn out when `Cc1cc(F)cc2nc(C[C@@H](C)C(=O)N[C@@H]3C(=O)N4CCCN4Cc4ccccc43)[nH]c12` [Example 117, (R)-3-(5-fluoro-7-methyl-1H-benzo[d]imidazol-2-yl)-2-methyl-N-((S)-11-oxo-2,3,10,11-tetrahydro-1H,5H-benzo[d]pyrazolo[1,2-a][1,2]diazepin-10-yl)propanamide] was run?
A: Its IC50 is 140 nM.

Q: What about the IC50 [2] of the same molecule?
A: The IC50 was 21 nM.

Q: With `Cc1cccc2nc(C[C@@H](C)C(=O)N[C@@H]3C(=O)N4CCCN4Cc4ccccc43)[nH]c12` [Example 112, (R)-2-methyl-3-(7-methyl-1H-benzo[d]imidazol-2-yl)-N-((S)-11-oxo-2,3,10,11-tetrahydro-1H,5H-benzo[d]pyrazolo[1,2-a][1,2]diazepin-10-yl)propanamide] as the molecule, how does the IC50 [1] read?
A: The IC50 was 139 nM.

Q: And the IC50 [2]?
A: The IC50 was 28 nM.

Q: What does the source list for `C[C@H](CC(=O)Nc1sc(-c2ccc(C(F)(F)F)nc2)nc1Cl)C(=O)N[C@@H]1C(=O)N2CCCN2Cc2ccccc21` [Example 108, (R)-N^4-(4-Chloro-2-(6-(trifluoromethyl)pyridin-3-yl)thiazol-5-yl)-2-methyl-N^1-((S)-11-oxo-2,3,10,11-tetrahydro-1H,5H-benzo[d]pyrazolo [1,2-a][1,2]diazepin-10-yl)succinamide]?
A: IC50 [1]: 3 nM; IC50 [2]: 3 nM

Q: With `CC[C@H](CNC(=O)c1scnc1C(F)(F)F)C(=O)N[C@@H]1C(=O)N2CC3(CC3)CN2C(=O)c2ccccc21` [Example 57, N-((R)-2-(((S)-5,11-Dioxo-10,11-dihydro-1H,3H,5H-spiro[benzo[d]pyr-azolo[1,2-a][1,2]diazepine-2,1′-cyclopropan]-10-yl)carbamoyl)butyl)-4-(trifluoromethyl) thiazole-5-carboxamide] as the molecule, how does the IC50 [1] read?
A: Its IC50 is 332 nM.

Q: What about the IC50 [2] of the same molecule?
A: The IC50 was 148 nM.

Q: `C[C@H](Cc1nc2ccccc2[nH]1)C(=O)N[C@@H]1C(=O)N2CCCN2Cc2ccccc21` [Example 111, (R)-3-(1H-benzo[d]imidazol-2-yl)-2-methyl-N—((S)-11-oxo-2,3,10,11-tetrahydro-1H,5H-benzo[d]pyrazolo[1,2-a][1,2]diazepin-10-yl)propanamide] was tested. Which IC50 [1] did it give?
A: Its IC50 is 666 nM.

Q: What about the IC50 [2] of the same molecule?
A: Its IC50 is 77 nM.

Q: For `Cc1noc(C)c1C(=O)NC[C@H](C(=O)N[C@@H]1C(=O)N2CCCN2C(=O)c2ccccc21)C(F)(F)F` [Example 48, N-((R)-2-(((S)-5,11-Dioxo-2,3,10,11-tetrahydro-1H,5H-benzo[d]pyrazolo [1,2-a][1,2]diazepin-10-yl)carbamoyl)-3,3,3-trifluoropropyl)-3,5-dimethylisoxazole-4-carboxamide], which IC50 [1] is on record?
A: Its IC50 is 85 nM.

Q: What about the IC50 [2] of the same molecule?
A: The IC50 was 22 nM.

Q: How did the IC50 [1] turn out when `CC[C@H](CNC(=O)c1sc(-c2ccc(OC(F)F)nc2)nc1Cl)C(=O)N[C@@H]1C(=O)N2CCCN2C(=O)c2ccccc21` [Example 37, 4-Chloro-2-(6-(difluoromethoxy)pyridin-3-yl)-N-((R)-2-(((S)-5,11-dioxo-2,3,10,11-tetrahydro-1H,5H-benzo[d]pyrazolo [1,2-a][1,2]diazepin-10-yl)carbamoyl)butyl) thiazole-5-carboxamide] was run?
A: The IC50 was 53 nM.

Q: And the IC50 [2]?
A: Its IC50 is 32 nM.

Q: How did the IC50 [1] turn out when `CC[C@H](CNC(=O)c1sc(-c2ccc(C(F)(F)F)nc2)nc1C)C(=O)N[C@@H]1C(=O)N2CCCN2Cc2ccccc21` [Example 18, 4-Methyl-N-((R)-2-(((S)-11-oxo-2,3,10,11-tetrahydro-1H,5H-benzo[d]pyrazolo [1,2-a][1,2]diazepin-10-yl)carbamoyl)butyl)-2-(6-(trifluoromethyl)pyridin-3-yl)thiazole-5-carboxamide] was run?
A: The IC50 was 12 nM.

Q: And the IC50 [2]?
A: Its IC50 is 3 nM.

Q: `COc1ccc(-c2cc(NC(=O)C[C@@H](C)C(=O)N[C@@H]3C(=O)N4CCCN4Cc4ccccc43)n(C)n2)cn1` [Example 97, (R)-N^4-(3-(6-Methoxypyridin-3-yl)-1-methyl-1H-pyrazol-5-yl)-2-methyl-N^1-((S)-11-oxo-2,3,10,11-tetrahydro-1H,5H-benzo[d]pyrazolo [1,2-a][1,2]diazepin-10-yl)succinamide] was tested. Which IC50 [1] did it give?
A: Its IC50 is 13 nM.

Q: And the IC50 [2]?
A: Its IC50 is 15 nM.

Q: With `C[C@H](CC(=O)Nc1cn(-c2ccc(C(F)(F)F)nc2)nc1Cl)C(=O)N[C@@H]1C(=O)N2CCCN2Cc2ccccc21` [Example 88, (R)-N^4-(3-Chloro-1-(6-(trifluoromethyl)pyridin-3-yl)-1H-pyrazol-4-yl)-2-methyl-N^1-((S)-11-oxo-2,3,10,11-tetrahydro-1H,5H-benzo[d]pyrazolo [1,2-a][1,2]diazepin-10-yl)succinamide] as the molecule, how does the IC50 [1] read?
A: Its IC50 is 10 nM.

Q: And the IC50 [2]?
A: Its IC50 is 7 nM.

Q: Which IC50 [1] does the source give for `CC[C@H](CNC(=O)c1sncc1C)C(=O)N[C@@H]1C(=O)N2CCCN2C(=O)c2ccccc21` [Example 35, N-((R)-2-(((S)-5,11-Dioxo-2,3,10,11-tetrahydro-1H,5H-benzo[d]pyrazolo [1,2-a][1,2]diazepin-10-yl)carbamoyl)butyl)-4-methylisothiazole-5-carboxamide] here?
A: Its IC50 is 45 nM.

Q: What about the IC50 [2] of the same molecule?
A: The IC50 was 34 nM.

Q: With `CCC[C@H](Cc1nc2cc(F)cc(C)c2[nH]1)C(=O)N[C@@H]1C(=O)N2CCCN2Cc2ccccc21` [Example 119, (R)-2-((5-fluoro-7-methyl-1H-benzo[d]imidazol-2-yl)methyl)-N-((S)-11-oxo-2,3,10,11-tetrahydro-1H,5H-benzo[d]pyrazolo[1,2-a][1,2]diazepin-10-yl)pentanamide] as the molecule, how does the IC50 [1] read?
A: Its IC50 is 185 nM.

Q: And the IC50 [2]?
A: Its IC50 is 19 nM.

Q: Which results are given for `CC[C@H](CNC(=O)c1oncc1C)C(=O)N[C@@H]1C(=O)N2CCCN2Cc2ccccc21` [Example 51, 4-Methyl-N-((R)-2-(((S)-11-oxo-2,3,10,11-tetrahydro-1H,5H-benzo[d]pyrazolo [1,2-a][1,2]diazepin-10-yl)carbamoyl)butyl) isoxazole-5-carboxamide]?
A: IC50 [1]: 99 nM; IC50 [2]: 52 nM

Q: With `O=C(C[C@H](C(=O)N[C@@H]1C(=O)N2CCCN2C(=O)c2ccccc21)C1CC1)Nc1sc(-c2ccc(C(F)(F)F)nc2)nc1Cl` [Example 107, (S)-N^4-(4-Chloro-2-(6-(trifluoromethyl)pyridin-3-yl)thiazol-5-yl)-2-cyclopropyl-N^1-((S)-5,11-dioxo-2,3,10,11-tetrahydro-1H,5H-benzo[d]pyrazolo [1,2-a][1,2]diazepin-10-yl)succinamide] as the molecule, how does the IC50 [1] read?
A: The IC50 was 15 nM.

Q: And the IC50 [2]?
A: Its IC50 is 11 nM.

Q: With `CC[C@H](CNC(=O)c1ccnn1C(F)F)C(=O)N[C@@H]1C(=O)N2CC3(CC3)CN2C(=O)c2ccccc21` [Example 56, 1-(Difluoromethyl)-N-((R)-2-(((S)-5,11-dioxo-10,11-dihydro-1H,3H,5H-spiro[benzo[d]pyr-azolo[1,2-a][1,2]diazepine-2,1′-cyclopropan]-10-yl)carbamoyl)butyl)-1H-pyrazole-5-carboxamide] as the molecule, how does the IC50 [1] read?
A: Its IC50 is 191 nM.

Q: And the IC50 [2]?
A: Its IC50 is 101 nM.
